Values quoted from earlier work, collected in patent publication US8475839B2 (Novartis AG, priority 2006, dated 2013).

Tests used:
[1] = not given; remark: listed apart in the source

absolute oral bioavailability | absolute oral bioavailability, wide range (range around the about 25% value) | solubility in water [1] | SMILES
about 25% | 10-35% | – | CCCCC(=O)N(Cc1ccc(-c2ccccc2-c2nnn[nH]2)cc1)[C@H](C(=O)O)C(C)C [valsartan, (S)-N-valeryl-N-{[2′-(1H-tetrazole-5-yl)-biphenyl-4-yl]-methyl}-valine]
60-80% | – | – | NS(=O)(=O)c1cc2c(cc1Cl)NCNS2(=O)=O [Hydrochlorothiazide]
64-90% | – | slightly soluble | CCOC(=O)C1=C(COCCN)NC(C)=C(C(=O)OC)C1c1ccccc1Cl (centres unmarked) [Amlodipine besylate, 3-ethyl-5-methyl-2(2-aminoethoxymethyl)-4-(2-chlrorophenyl)-1,4-dihydro-6-methyl-3,5-pyridinedicarboxylate benzenesulphonate]
